How the values were obtained:
Rhizoctonia solani = assay: Rhizoctonia test (cotton)/Drench; assay type: in vivo; details: greenhouse, 30 ml drench per pot, 7 days at 20° C., BioAct 4 × 10^11 cfu/seed, F70 1.2 mg ai/seed
Method: (§1) The test is performed under greenhouse conditions.
Perlite was incubated with mycelia of Rhizoctonia solani. Infected perlite was scattered in a 1:1 mix of steamed field soil and sand and was incubated in a dark box in greenhouse for 6 days. After soil incubation, cotton seeds were sown in 6*6 cm pots containing this soil mixture.
Compounds and compound combinations were suspended and diluted with water to the desired concentrations. 30 ml of compound or compound combination preparation were drenched on each pot. Pots were incubated in the greenhouse for 7 days at 20° C.
Assessment consisted of counting of emerged seedlings. 0% means an efficacy which corresponds to that of the untreated control, while an efficacy of 100% means that all seedlings have emerged.

[1] = system: cotton (variety Vicky) seedlings; assay: Hypocotyl growth enhancement (cotton)/Drench; assay type: in vivo; details: 7 days after sowing
Method: as §1
Five cotton (variety Vicky) seeds were sown in a 6*6 cm pot containing 1:1 mix of steamed field soil and sand. Compounds and compound combinations were suspended and diluted with water to the desired concentrations. Just after sowing, 30 ml of compound or compound combination preparation were drenched on each pot. The pots (three replications per treatment) were placed in randomized arrangement in the greenhouse and kept at 20° C. for 7 days.
Length of hypocotyls was measured at 7 days after sowing.

O=C(NCCc1ncc(C(F)(F)F)cc1Cl)c1ccccc1C(F)(F)F [F70 fluopyram, fluopyram]
Efficacy in % found (activity found; emerged seedlings) (Rhizoctonia solani): 0%
Seedling/hypocotyl length compared in words ([1]; drench): significantly higher than untreated
Hypocotyl (length, average of 15 seedlings) ([1]; greenhouse, 30 ml drench per pot, 20° C., BioAct 4 × 10^11 cfu/plant, F70 1.2 mg ai/plant, untreated 5.3): 5.9 cm
